Common to all, as to experiment: Antibacterial activity, minimum inhibition concentration (method of The Chemotherapy Association, Japan)
Holding throughout (type): cell-based

The test system of assay [1] is Proteus rettgeri NIH-96. To be noted: Providencia rettgeri, NIH96, strain I: Proteus rettgeri NIH-96; read-out: minimum inhibition concentration. The text has this: (§1) The abbreviations A to P will be used in the following Tables 2 to 8.
(§2) Test results are shown in terms of the minimum inhibition concentration (µg/mℓ.) in the following Tables 2 to 8.

The subject of assay [2] is Proteus vulgaris OX-19. The note with it: Proteus vulgaris, OX19, strain H: Proteus vulgaris OX-19; read-out: minimum inhibition concentration.
Excerpt: as §1, §2

The subject of assay [3] is Bacillus subtilis ATCC 6633. To be noted: Bacillus subtilis, ATCC6633, strain B: Bacillus subtilis ATCC 6633; read-out: minimum inhibition concentration. The gist of the method:
(§3)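 MIC (µg/mℓ), Japanese Chemotherapy Assoc. standard method.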

The test system of assay [4] is Citrobactor freundii NIH-10018 -68. The note with it: strain O: Citrobactor freundii NIH-10018 -68; read-out: minimum inhibition concentration. The gist of the method: as §3
Assay [5] concerns Enterobactor cloacae NCTC-9394. The note with it: strain N: Enterobactor cloacae NCTC-9394; read-out: minimum inhibition concentration. The gist of the method: as §3
In assay [6] the test system is Escherichia coli NIHJC-2. To be noted: Escherichia coli, NIHJC2, strain L: Escherichia coli NIHJC-2; read-out: minimum inhibition concentration. The gist of the method:
as §3

For assay [7], the system named is Escherichia coli NIHJ. The note with it: Escherichia coli, strain K: Escherichia coli NIHJ; read-out: minimum inhibition concentration. The gist of the method:
as §3

Assay [8] has as its system Klebsiella pneumoniae. To be noted: Klebsiella pneumoniae, strain C: Klebsiella pneumoniae; read-out: minimum inhibition concentration. The gist of the method:
as §3

Assay [9] concerns Proteus mirabillis B-30-2 IFO-3849. The note with it: strain G: Proteus mirabillis B-30-2 IFO-3849; read-out: minimum inhibition concentration. The gist of the method: as §3
Assay [10] relates to Proteus morgani Kono. To be noted: strain J: Proteus morgani Kono; read-out: minimum inhibition concentration. The gist of the method: as §3
Assay [11] relates to Pseudomonas aeruginosa NCTC-10490. The note with it: Pseudomonas aeruginosa, NCTC10490, strain M: Pseudomonas aeruginosa NCTC-10490; read-out: minimum inhibition concentration. The gist of the method: as §3
The subject of assay [12] is Salmonella typhimurium 3173. The note with it: Salmonella enterica, TYPHIMURIUM, strain D: Salmonella typhimurium 3173; read-out: minimum inhibition concentration. The gist of the method: as §3
The subject of assay [13] is Serratia marcescens 1023. To be noted: Serratia marcescens, 1023, strain E: Serratia marcescens 1023; read-out: minimum inhibition concentration. The gist of the method:
as §3

For assay [14], the system named is Serratia marcescens IFO-3736. To be noted: Serratia marcescens, IFO3736, strain F: Serratia marcescens IFO-3736; read-out: minimum inhibition concentration. The gist of the method:
as §3

Assay [15] has as its system Staphylococcus aureus 6538-P. To be noted: strain A: Staphylococcus aureus 6538-P; read-out: minimum inhibition concentration. The gist of the method:
as §3

≈ marks a conversion by molar mass, not a printed value.

For `COc1ccc(C(C(=O)NC2C(=O)N3C(C(=O)O)=C(COC(C)=O)CS[C@H]23)=C(Cl)Cl)cc1` (stereo partly drawn) [Compound 27, 7-[2-dichloromethylene-2-(4-methoxyphenyl)acetamido]-3-acetoxymethyl-3-cephem-4-carboxylic acid], the MIC in [1] is 3.12 µg/mL (≈ 6.23 µM); in assay [2], over 100 µg/mL; in assay [3], 3.12 µg/mL (≈ 6.23 µM); in assay [4], over 100 µg/mL; in [5], over 100 µg/mL; in assay [6], over 100 µg/mL. The MIC in [7] is 100 µg/mL (≈ 199 µM); in assay [8] it was over 100 µg/mL; in assay [9], over 100 µg/mL; in assay [10] it was over 100 µg/mL; in assay [11] it was 100 µg/mL (≈ 199 µM); in assay [12], over 100 µg/mL. Also, the values for the MIC in [13], in assay [14] and in [15] were 6.25 µg/mL (≈ 12.5 µM), over 100 µg/mL and over 100 µg/mL, respectively.
Turning to `CC(=O)OCC1=C(C(=O)O)N2C(=O)C(NC(=O)C(=C(Cl)Cl)c3ccc(C)cc3)[C@H]2SC1` (stereo partly drawn) [Compound 28, 7-[2-dichloromethylene-2-(4-methylphenyl)acetamido]-3-acetoxymethyl-3-cephem-4-carboxylic acid], the MIC in assay [1] was 3.12 µg/mL (≈ 6.44 µM); in assay [2] it was 100 µg/mL (≈ 206 µM); in [3], 3.12 µg/mL (≈ 6.44 µM); in assay [4], over 100 µg/mL; in assay [5], over 100 µg/mL; in assay [6], over 100 µg/mL. Also, the MIC was over 100 µg/mL in assay [7]; over 100 µg/mL in assay [8]; over 100 µg/mL in assay [9]; over 100 µg/mL in assay [10]; 50 µg/mL (≈ 103 µM) in assay [11]; over 100 µg/mL in assay [12]. The MIC in assay [13] was 6.25 µg/mL (≈ 12.9 µM); in assay [14] it was over 100 µg/mL; in assay [15] it was over 100 µg/mL.
Turning to `CC(=O)OCC1=C(C(=O)O)N2C(=O)C(NC(=O)C(=C(Cl)Cl)c3ccc(Cl)cc3)[C@H]2SC1` (stereo partly drawn) [Compound 29, 7-[2-dichloromethylene-2-(4-chlorophenyl)acetamido]-3-acetoxymethyl-3-cephem-4-carboxylic acid], the MIC in [1] is 3.12 µg/mL (≈ 6.18 µM); in assay [2], over 100 µg/mL; in [3], 1.56 µg/mL (≈ 3.08 µM); in assay [4], over 100 µg/mL; in [5], over 100 µg/mL; in assay [6], over 100 µg/mL. Besides, the MIC in assay [7] was 100 µg/mL (≈ 198 µM); in [8], over 100 µg/mL; in assay [9], over 100 µg/mL; in assay [10], over 100 µg/mL; in [11], over 100 µg/mL; in [12], over 100 µg/mL. Further, the MIC in assay [13] was 12.5 µg/mL (≈ 24.7 µM); in assay [14], over 100 µg/mL; in assay [15] it was over 100 µg/mL.
For `CC(=O)OCC1=C(C(=O)O)N2C(=O)C(NC(=O)C(=C(Cl)Cl)c3ccc(Cl)c(Cl)c3)[C@H]2SC1` (stereo partly drawn) [Compound 30, 7-[2-dichloromethylene-2-(3,4-dichlorophenyl)acetamido]-3-acetoxymethyl-3-cephem-4-carboxylic acid], the MIC in [1] was 6.25 µg/mL (≈ 11.6 µM); in assay [2], over 100 µg/mL; in assay [3], 0.78 µg/mL (≈ 1.44 µM); in assay [4], over 100 µg/mL; in assay [5] it was over 100 µg/mL; in [6] it was over 100 µg/mL. Moreover, the MIC in [7] was 100 µg/mL (≈ 185 µM); in assay [8] it was over 100 µg/mL; in [9] it was over 100 µg/mL; in assay [10] it was over 100 µg/mL; in [11] it was 100 µg/mL (≈ 185 µM); in [12], over 100 µg/mL. Moreover, the MIC in [13] is 6.25 µg/mL (≈ 11.6 µM); in assay [14], over 100 µg/mL; in assay [15] it was 100 µg/mL (≈ 185 µM).
For `CC(=O)OCC1=C(C(=O)O)N2C(=O)C(NC(=O)C(=C(Cl)Cl)c3ccc(Cl)s3)[C@H]2SC1` (stereo partly drawn) [Compound 31, 7-[2-dichloromethylene-2-(5-chloro-2-thienyl)acetamido]-3-acetoxymethyl-3-cephem-4-carboxylic acid], the MIC in assay [1] is 1.56 µg/mL (≈ 3.05 µM); in assay [2], 100 µg/mL (≈ 195 µM); in assay [3], 6.25 µg/mL (≈ 12.2 µM); in [4], over 100 µg/mL; in assay [5] it was over 100 µg/mL; in assay [6], over 100 µg/mL. Besides, the MIC in [7] was 25 µg/mL (≈ 48.8 µM); in [8] it was over 100 µg/mL; in assay [9] it was over 100 µg/mL; in assay [10], over 100 µg/mL; in assay [11], 100 µg/mL (≈ 195 µM); in assay [12] it was over 100 µg/mL. Besides, the MIC in assay [13] is 100 µg/mL (≈ 195 µM); in [14], over 100 µg/mL; in [15] it was 0.2 µg/mL (≈ 0.391 µM).
For `CC(=O)OCC1=C(C(=O)O)N2C(=O)C(NC(=O)C(=C(Cl)Cl)c3ccc(Br)s3)[C@H]2SC1` (stereo partly drawn) [Compound 32, 7-[2-dichloromethylene-2-(5-bromo-2-thienyl)acetamido]-3-acetoxymethyl-3-cephem-4-carboxylic acid], the MIC in [1] is 0.78 µg/mL (≈ 1.4 µM); in [2] it was 100 µg/mL (≈ 180 µM); in assay [3] it was 6.25 µg/mL (≈ 11.2 µM); in assay [4], over 100 µg/mL; in assay [5], over 100 µg/mL; in assay [6] it was over 100 µg/mL. Also, the MIC in [7] was 25 µg/mL (≈ 44.9 µM); in assay [8], over 100 µg/mL; in [9] it was over 100 µg/mL; in assay [10], over 100 µg/mL; in assay [11], 50 µg/mL (≈ 89.9 µM); in [12], over 100 µg/mL. Further, the MIC was 12.5 µg/mL (≈ 22.5 µM) in assay [13], over 100 µg/mL in [14] and 0.1 µg/mL (≈ 0.18 µM) in assay [15].
Consider `CC(=O)OCC1=C(C(=O)O)N2C(=O)C(NC(=O)C(=C(Cl)Cl)c3ccco3)[C@H]2SC1` (stereo partly drawn) [Compound 33, 7-[2-dichloromethylene-2-(2-furyl)acetamido]-3-acetoxymethyl-3-cephem-4-carboxylic acid], for which the MIC is 0.1 µg/mL (≈ 0.217 µM) in assay [1]; 6.25 µg/mL (≈ 13.5 µM) in [2]; 6.25 µg/mL (≈ 13.5 µM) in assay [3]; 50 µg/mL (≈ 108 µM) in assay [4]; 25 µg/mL (≈ 54.2 µM) in assay [5]; 100 µg/mL (≈ 217 µM) in assay [6]. The MIC is 1.56 µg/mL (≈ 3.38 µM) in assay [7]; 100 µg/mL (≈ 217 µM) in assay [8]; 100 µg/mL (≈ 217 µM) in assay [9]; over 100 µg/mL in assay [10]; 12.5 µg/mL (≈ 27.1 µM) in assay [11]; 50 µg/mL (≈ 108 µM) in assay [12]. Moreover, the MIC was found to be 25 µg/mL (≈ 54.2 µM) in assay [13], 100 µg/mL (≈ 217 µM) in assay [14] and 0.39 µg/mL (≈ 0.845 µM) in [15].
`Cn1nnnc1SCC1=C(C(=O)O)N2C(=O)C(NC(=O)C(=CCl)c3cccs3)C2SC1` (stereo not drawn) [Compound 34, 7-[2-chloromethylene-2-(2-thienyl)acetamido]-3-(l-methyl-lH-tetrazol-5-yl)thiomethyl-3-cephem-4-carboxylic acid]: the MIC in [1] worked out at 0.05 µg/mL (≈ 0.1 µM); in [2], 12.5 µg/mL (≈ 25.1 µM); in [3], 0.78 µg/mL (≈ 1.56 µM); in [4], 100 µg/mL (≈ 200 µM); in [5], 12.5 µg/mL (≈ 25.1 µM); in assay [6] it was 25 µg/mL (≈ 50.1 µM). For the same compound, the MIC was 1.56 µg/mL (≈ 3.13 µM) in assay [7]; 100 µg/mL (≈ 200 µM) in assay [8]; 100 µg/mL (≈ 200 µM) in assay [9]; 100 µg/mL (≈ 200 µM) in assay [10]; 100 µg/mL (≈ 200 µM) in assay [11]; 12.5 µg/mL (≈ 25.1 µM) in [12]. Also, the MIC turned out to be 1.56 µg/mL (≈ 3.13 µM) in [13], 100 µg/mL (≈ 200 µM) in assay [14] and 25 µg/mL (≈ 50.1 µM) in assay [15].

Values taken from patent EP0048954A2, “Beta-lactam compounds, process for the preparation thereof and intermediate products for the preparation thereof” (SAGAMI CHEMICAL RESEARCH CENTER, priority 1980, dated 1982).
